In the NIST ThermoML archive (doi:10.1016/j.jct.2015.07.014):
“And” between values parts separate entries of the source, which are not always exact repeats. Equal values may be shown once. Numbers after ± are expanded uncertainties.

Conditions: Fluid (supercritical or subcritical phases), Buoyancy - hydrostatic balance with magnetic suspension - one sinker

[Ar] [argon]
Conditions | mass density [kg/m3]
298.2 K, 30957 kPa | 499.118 ± 0.25
298.22 K, 26965 kPa | 444.81 ± 0.22
298.22 K, 28963 kPa | 472.591 ± 0.24
298.23 K, 10975 kPa | 185.811 ± 0.11
298.23 K, 12977 kPa | 220.515 ± 0.12
298.23 K, 14975 kPa | 254.862 ± 0.14
298.23 K, 18968 kPa | 321.888 ± 0.17
298.23 K, 20970 kPa | 354.268 ± 0.18
298.23 K, 22969 kPa | 385.599 ± 0.2
298.23 K, 24967 kPa | 415.802 ± 0.21
298.24 K, 16973 kPa | 288.723 ± 0.15
348.19 K, 30960 kPa | 409.077 ± 0.2
348.21 K, 10976 kPa | 153.363 ± 0.077
348.21 K, 19007 kPa | 262.654 ± 0.14
348.21 K, 28963 kPa | 386.293 ± 0.19
348.22 K, 18971 kPa | 262.184 ± 0.14
348.22 K, 28964 kPa | 386.289 ± 0.19
348.23 K, 17005 kPa | 236 ± 0.42
348.24 K, 15014 kPa | 209.051 ± 0.29
348.24 K, 16969 kPa | 235.508 ± 0.42
348.24 K, 26966 kPa | 362.782 ± 1.3
348.24 K, 30961 kPa | 409.019 ± 0.2
348.25 K, 12974 kPa | 181.049 ± 0.34
348.25 K, 32887 kPa | 430.274 ± 0.21
348.26 K, 21009 kPa | 288.719 ± 0.17
348.26 K, 24967 kPa | 338.568 ± 0.87
348.27 K, 14970 kPa | 208.427 ± 0.29
348.27 K, 20969 kPa | 288.199 ± 0.17
348.27 K, 22970 kPa | 313.733 ± 0.19
348.27 K, 26989 kPa | 363.019 ± 1.3
348.28 K, 11019 kPa | 153.917 ± 0.078
348.28 K, 13012 kPa | 181.556 ± 0.34
348.28 K, 25000 kPa | 338.949 ± 0.87
348.29 K, 23010 kPa | 314.199 ± 0.19
397.91 K, 12975 kPa | 155.101 ± 0.085
397.98 K, 14981 kPa | 178.323 ± 0.096
398.1 K, 24969 kPa | 288.472 ± 0.14
398.17 K, 16979 kPa | 201.05 ± 0.11
398.19 K, 30985 kPa | 349.444 ± 0.17
398.2 K, 28999 kPa | 329.764 ± 0.17
398.21 K, 32960 kPa | 368.494 ± 0.18
398.23 K, 26971 kPa | 309.171 ± 0.17
398.23 K, 30962 kPa | 349.179 ± 0.17
398.24 K, 11017 kPa | 132.022 ± 0.076
398.24 K, 19010 kPa | 223.818 ± 0.11
398.25 K, 21010 kPa | 245.897 ± 0.12
398.26 K, 13011 kPa | 155.367 ± 0.085
398.26 K, 23005 kPa | 267.5 ± 0.13
398.28 K, 28964 kPa | 329.33 ± 0.16
398.3 K, 17005 kPa | 201.261 ± 0.11
398.31 K, 15013 kPa | 178.513 ± 0.097
398.35 K, 27004 kPa | 309.394 ± 0.15
398.47 K, 25004 kPa | 288.536 ± 0.14
398.61 K, 18975 kPa | 223.208 ± 0.12
398.87 K, 20975 kPa | 245.092 ± 0.13
398.92 K, 22970 kPa | 266.619 ± 0.14

N#N [nitrogen]
Conditions | mass density
298.12 K, 32109 kPa | 311.953 ± 0.15 kg/m3
298.22 K, 30959 kPa | 303.674 ± 0.15 kg/m3
298.23 K, 10976 kPa | 123.118 ± 0.07 kg/m3
298.23 K, 12976 kPa | 144.452 ± 0.079 kg/m3
298.23 K, 16971 kPa | 185.161 ± 0.096 kg/m3
298.23 K, 19010 kPa | 204.785 ± 0.1 kg/m3
298.23 K, 20970 kPa | 222.928 ± 0.11 kg/m3
298.23 K, 22971 kPa | 240.653 ± 0.12 kg/m3
298.23 K, 26968 kPa | 273.675 ± 0.14 kg/m3
298.23 K, 26969 kPa | 273.679 ± 0.14 kg/m3
298.23 K, 28965 kPa | 289.039 ± 0.14 kg/m3
298.23 K, 28966 kPa | 289.035 ± 0.14 kg/m3
298.24 K, 11019 kPa | 123.569 ± 0.07 kg/m3
298.24 K, 13017 kPa | 144.868 ± 0.079 kg/m3
298.24 K, 14976 kPa | 165.17 ± 0.088 kg/m3
298.24 K, 17014 kPa | 185.557 ± 0.096 kg/m3
298.24 K, 18975 kPa | 204.467 ± 0.1 kg/m3
298.24 K, 21004 kPa | 223.219 ± 0.11 kg/m3
298.24 K, 22992 kPa | 240.817 ± 0.12 kg/m3
298.24 K, 24970 kPa | 257.55 ± 0.13 kg/m3
298.24 K, 24971 kPa | 257.546 ± 0.13 kg/m3
298.25 K, 15014 kPa | 165.544 ± 0.088 kg/m3
298.33 K, 30945 kPa | 303.445 ± 0.15 kg/m3
348.21 K, 28966 kPa | 244.176 ± 0.12 kg/m3
348.23 K, 17010 kPa | 154.974 ± 0.11 kg/m3
348.23 K, 32959 kPa | 269.893 ± 0.13 kg/m3
348.24 K, 18974 kPa | 170.907 ± 0.093 kg/m3
348.24 K, 26968 kPa | 230.548 ± 0.12 kg/m3
348.24 K, 28967 kPa | 244.162 ± 0.12 kg/m3
348.25 K, 10981 kPa | 103.086 ± 0.18 kg/m3
348.25 K, 13016 kPa | 121.065 ± 0.07 kg/m3
348.25 K, 22970 kPa | 201.759 ± 0.32 kg/m3
348.25 K, 24970 kPa | 216.421 ± 0.13 kg/m3
348.25 K, 26979 kPa | 230.612 ± 0.12 kg/m3
348.25 K, 30963 kPa | 257.253 ± 0.13 kg/m3 and 257.258 ± 0.13 kg/m3
348.26 K, 15015 kPa | 138.272 ± 0.074 kg/m3
348.26 K, 16972 kPa | 154.648 ± 0.11 kg/m3
348.26 K, 20971 kPa | 186.577 ± 0.31 kg/m3
348.27 K, 11019 kPa | 103.42 ± 0.18 kg/m3
348.27 K, 21013 kPa | 186.886 ± 0.31 kg/m3
348.28 K, 12976 kPa | 120.712 ± 0.069 kg/m3
348.28 K, 14976 kPa | 137.928 ± 0.073 kg/m3
348.28 K, 19011 kPa | 171.174 ± 0.093 kg/m3
348.28 K, 23006 kPa | 202.007 ± 0.32 kg/m3
348.29 K, 25001 kPa | 216.612 ± 0.13 kg/m3
398.17 K, 21012 kPa | 161.802 ± 0.082 kg/m3
398.19 K, 23005 kPa | 175.071 ± 0.088 kg/m3
398.21 K, 27000 kPa | 200.503 ± 0.1 kg/m3
398.22 K, 19011 kPa | 148.062 ± 0.076 kg/m3
398.22 K, 28993 kPa | 212.616 ± 0.1 kg/m3
398.22 K, 32961 kPa | 235.672 ± 0.12 kg/m3
398.23 K, 25002 kPa | 187.957 ± 0.094 kg/m3
398.24 K, 20972 kPa | 161.499 ± 0.082 kg/m3
398.24 K, 26967 kPa | 200.287 ± 0.1 kg/m3
398.24 K, 28966 kPa | 212.445 ± 0.1 kg/m3
398.25 K, 12976 kPa | 104.354 ± 0.057 kg/m3
398.25 K, 22969 kPa | 174.806 ± 0.088 kg/m3
398.26 K, 24969 kPa | 187.737 ± 0.094 kg/m3
398.26 K, 30962 kPa | 224.219 ± 0.11 kg/m3
398.27 K, 30977 kPa | 224.298 ± 0.11 kg/m3
398.28 K, 14977 kPa | 119.222 ± 0.065 kg/m3
398.28 K, 18975 kPa | 147.786 ± 0.076 kg/m3
398.29 K, 16973 kPa | 133.67 ± 0.07 kg/m3
398.3 K, 13014 kPa | 104.623 ± 0.057 kg/m3
398.32 K, 11005 kPa | 89.328 ± 0.051 kg/m3
398.36 K, 17012 kPa | 133.928 ± 0.07 kg/m3
398.39 K, 15006 kPa | 119.391 ± 0.065 kg/m3
